# Reference: publication PMC10859961, “Ir(III) Half-Sandwich Photosensitizers with a π-Expansive Ligand for Efficient Anticancer Photodynamic Therapy” (Journal of Medicinal Chemistry, 2024)
# Like-named read-outs stand apart in the source and are kept apart here.
# Experiments:
# A549 cancer cells = test: MTT cell viability assay, dark or photoactivated; format: cell-based, human; details: 4 h incubation, kept in the dark, viability after 48 h, MTT, read-out: IC50 dark
# Procedure: Cells were cultured in 96-well plates at a density of 3000 (A549), 2500 (HeLa), or 5000 (PC-3, 1BR.3.G, and MRC-5) cells per well in cell culture medium and allowed to attach for 24 h. Solutions of the complexes at different concentrations were prepared for cell treatments. In all cases, the solid compounds were weighed using an analytical balance (Mettler Toledo AX205DR) to ensure precise measurements. Subsequently, 5 mM solutions were prepared using DMSO. Solutions were then diluted in water to reach a concentration of 1 mM and then, aliquots were taken and diluted in culture medium to obtain solutions ranging from 0 to 50 μM. […] The cells were treated with these solutions in dark conditions or following the photoactivation protocol (see below). 48 h later the treatments were removed, and cells were washed with phosphate-buffered saline (PBS).
# Initially, the effect of the complexes on the cell viability was determined by the 3-(4,5-dimethylthiazol-2-yl)-2,5-diphenyltetrazolium bromide (MTT) assay.[147] The cells were incubated for 2 h with 100 μL of culture medium together with 10 μL of MTT (Sigma-Aldrich) at 0.5 mg/mL. After discarding the medium, DMSO was added to each well to dissolve the purple formazan crystals. The absorbance of each well was determined on a Multiscan Plate Reader (Synergy 4, Biotek, Winooski) at a wavelength of 570 nm. Cell viability was also assessed using the CyQUANT Direct Cell Proliferation Assay (Thermo Fisher Scientific), following the manufacturer’s instructions. Briefly, after the treatments, the cells were washed with PBS, and an equal volume of culture medium and CyQUANT mix was added to each well. The plates were then incubated for 1 h at 37 °C. Subsequently, the fluorescence intensity was bottom read using a Multiscan Plate Reader (Synergy 4, Biotek, Winooski) with excitation and emission filters of 485 and 528 nm, respectively. In both assays, at least three replicates were measured for each treatment. The concentration that reduces the cell viability by 50% (IC50) was established using the Gen5 software (BioTek). Three independent experiments were carried out for each compound. […] The phototoxicity index (PI = IC50,dark/IC50,light) was determined.
# To assess the photodynamic activity of the complexes, cells were incubated with the complexes for 4 h to enable their intracellular accumulation. The cells were then irradiated with light with a wavelength of 460 nm (blue), 530 nm (green), or 655 nm (red) for 1 h using a LED system (LuxLight) with an effective power of 6.7 mW cm^–2, which provides a total light dose of 24.1 J cm^–2. The LED system was positioned at 25 mm from the cell culture plates.
# [1] = pKa determination (absorbance vs pH); format: physicochemical; details: H2O/DMSO (98/2, v/v) solution; DMSO/H2O (2/98, v/v), Bu4NBF4 5 mM; piperidine ring; read-out: pKa
# Procedure: Solutions of complexes 5 and 6 (2.00 × 10^–5 M) and Imepip ligand (2.00 × 10^–3 M) in H2O/DMSO (98/2, v/v) mixture with n-Bu4NBF4 (5 mM) were prepared. The presence of the salt ensured the conductivity of the media. Evolution of the peaks was studied at different pH by recording the absorbance spectrum. Aliquots of 10 μL of HCl (0.002–0.020 M) or NaOH (0.002–0.020 M) were added to a solution of 2.4 mL of complex to vary the pH. The absorbance versus pH plot enables us to determine one constant according to the equation from the Wilson and Lester method (eq 2):[146] [drawing 23] 2 where Aa is the absorbance for the acid species, Ab is the absorbance for the basic species, and Am is the absorbance of the mixture. The intersection obtained by representing log(Am – Aa)/(Ab – Am) versus pH provides the pKa.
# [2] = H2O/DMSO (95:5); cited from earlier work
# [3] = degassed acetonitrile; cited from earlier work
# HeLa = details: 425 nm, dose 1.2 J cm‐2, ref e (ACS Appl. Mater. Interfaces, 2017, 9, 42471; main text ref 24); cited from earlier work
# A549 = details: 425 nm, dose 1.2 J cm‐2, ref e (ACS Appl. Mater. Interfaces, 2017, 9, 42471; main text ref 24); cited from earlier work
# SK‐MEL28 = details: visible light, dose 100 J cm‐2, ref m (Inorg. Chem. 2016, 55, 83); cited from earlier work
# [4] = 1O2 quantum yield determination with DPBF; details: acetonitrile
# Procedure: It was performed for complexes 1–8 in acetonitrile according to a relative procedure adapted from the literature[132]−[134] based on monitoring the oxidation of 1,3-diphenylisobenzofuran (DPBF, yellow) to 1,2-dibenzoylbenzene (colorless) photosensitized by the Ir(III) complexes. DPBF was used as an ^1O2 scavenger due to its fast reaction with this molecule. Fresh stock air-equilibrated solutions of photosensitizers (6.00 × 10^–6 M) and DPBF (1.50 × 10^–4 M) in acetonitrile were prepared. In a quartz cell, 1 mL of DPBF solution, 0.5 mL of complex solution, and 1.5 mL of acetonitrile were mixed to prepare a final solution with 5.00 × 10^–5 M DPBF and 1.00 × 10^–6 M complex. The final solutions were studied by recording UV–vis absorption spectra at room temperature in dark conditions (over a period of 6 min with time intervals of 2 min), under blue light irradiation (λexc = 470 nm, “Medusa” photoreactor) and under green light irradiation (λexc = 530 nm, “Medusa” photoreactor) for 5 s irradiation intervals during a total exposure period of 20 s. Absorption UV–vis spectra were recorded after every irradiation interval.
# The consumption of DPBF probe was measured by monitoring its absorbance intensity decrease at 410 nm with irradiation time. ^1O2 generation quantum yield (ϕΔ) was calculated from eq 1 using Rose Bengal or [Ru(bpy)3]^2+ as reference for complexes with pbpz and pbpn ligands, respectively: [drawing 22] 1 where s and ref subscripts correspond to the complex and the reference, ϕΔ is the ^1O2 generation quantum yield (0.53 for Rose Bengal[135] and 0.56 for [Ru(bpy)3]Cl2[132] in degassed acetonitrile), S is the slope of the plots of the −ln(normalized absorbance) of DPBF at 410 nm vs the irradiation time, and F is the correction factor of absorption, which is given by F = 1–10^–O.D. (where O.D. is the optical density at 470 nm of solutions of complexes and references). The reproducibility of the results was confirmed by performing each experiment three times.
# The stability of DPBF probe was studied in dark conditions and under light irradiation. In dark conditions and under green light irradiation the probe remains unaltered. However, under blue light irradiation, a photobleaching of DPBF was observed. Probe consumption was approximately 6.5% every 5 s. Therefore, a working interval of 20 s was chosen, where 75% of the probe remains stable. To calculate the ϕΔ, a correction factor was applied to the absorbance at 410 nm: a 6.5% of the previous value was added to each absorbance to counteract self-consumption of the probe (i.e., to the absorbance at 10 s, a 6.5% of the absorbance at 5 s was added).
# CT26 = test system: CT26; parameters: method as in p (Pozza et al., Inorg. Chem. 2023); details: 540 nm, dose 9 J cm‐2, ref p (Pozza et al., Inorg. Chem. 2023); cited from earlier work
# HT29 = test system: HT29; parameters: method as in p (Pozza et al., Inorg. Chem. 2023); details: 540 nm, dose 9 J cm‐2, ref p (Pozza et al., Inorg. Chem. 2023); cited from earlier work
# RPE‐1 = test system: RPE‐1; parameters: method as in p (Pozza et al., Inorg. Chem. 2023); details: cited from earlier work
# [5] = 540 nm, dose 9 J cm‐2, ref p (Pozza et al., Inorg. Chem. 2023)
# [6] = 620 nm, dose 6.7 J cm‐2, ref p (Pozza et al., Inorg. Chem. 2023)
structure (smiles),measurement,setting,value
"c1cn(CCN2CCCCC2)cn1 [(N-ethylpiperidyl)imidazole, reference compound]",IC50,A549 cancer cells; A549,68 ± 2 µM
same,IC50,"A549 cancer cells; Homo sapiens, A549, A549",> 50 µM
same,pKa,[1],7.1
O=C([O-])c1c(Cl)c(Cl)c(Cl)c(Cl)c1-c1c2cc(I)c(=O)c(I)c-2oc2c(I)c([O-])c(I)cc12.[Na+].[Na+] [Rose Bengal],1O2 generation quantum yield (ϕΔ) of reference,[2],0.76
same,1O2 generation quantum yield (ϕΔ) of reference,[3],0.53
F[P-](F)(F)(F)(F)F.[Ir+3].[c-]1ccccc1-c1ccccn1.[c-]1ccccc1-c1ccccn1.c1ccc2cc3[nH]c(-c4ccc5ccccc5n4)nc3cc2c1 [[Ir(N^∧N)(ppy)2]PF6],PI/Dose,HeLa,397
same,PI/Dose,A549,268
[Ru+2].[c-]1cccc2c1c1ncccc1c1nc3cc4ccccc4cc3nc21.c1ccc(-c2ccccn2)nc1.c1ccc(-c2ccccn2)nc1 [[Ru(bpy)2(pbpn)]+],PI,SK‐MEL28,> 1400
same,PI/Dose,SK‐MEL28,> 140
"[Cl][Ru][Cl].c1ccc(-c2ccccn2)nc1.c1ccc(-c2ccccn2)nc1.c1ccc(-c2ccccn2)nc1 [[Ru(bpy)3]Cl2, reference compound]",1O2 generation quantum yield (ϕΔ) of reference,[2],0.18
same,"Slope (S) of ‐ln(normalized Abs) vs time, photooxidation of DPBF",[4]; λir = 470 nm,0.0535
same,"Slope (S) of ‐ln(normalized Abs) vs time, photooxidation of DPBF",[4]; λir = 530 nm,0.0057
same,1O2 generation quantum yield (ϕΔ) of reference,[3],0.56
[Ru+2].c1ccc2cc3nc4c5cccnc5c5ncccc5c4nc3cc2c1.c1ccc2cc3nc4c5cccnc5c5ncccc5c4nc3cc2c1.c1cnc2c(c1)ccc1cccnc12 [[Ru(dppn)2(phen)]2+],PI,CT26,1666
same,PI/Dose,CT26,185.1
same,PI,HT29,556
same,PI/Dose,HT29,61.8
same,PI,RPE‐1; [5],556
same,PI/Dose,RPE‐1; [5],61.8
same,PI,RPE‐1; [6],333
same,PI/Dose,RPE‐1; [6],49.7
